In article PMC8997913, “Lichen Secondary Metabolites Inhibit the Wnt/β-Catenin Pathway in Glioblastoma Cells and Improve the Anticancer Effects of Temozolomide” (Cells, 2022):
Read-outs that look alike come from different tables or passages of the source.

How the values were obtained:
[1] = tested on: U-138 MG cells; test: Apoptosis, caspase-3/7 and 7-AAD flow cytometry, U-138 MG; format: cell-based, human; conditions: 48 h
Protocol: (§1) Based on the MTT test, the lichen secondary metabolite concentrations allowing the survival of more than 70% of cells were chosen for the subsequent experiments. The compounds were added as follows: A-172 cells—atranorin 25 µM, caperatic acid 50 µM, physodic acid 25 µM, squamatic acid 25 µM, salazinic acid 50 µM, and lecanoric acid 100 µM; T98G cells—atranorin 50 µM, caperatic acid 100 µM, physodic acid 25 µM, squamatic acid 50 µM, salazinic acid 100 µM, and lecanoric acid 100 µM; U-138 MG cells—atranorin 25 µM, caperatic acid 50 µM, physodic acid 25 µM, squamatic acid 50 µM, salazinic acid 50 µM, and lecanoric acid 100 µM. As far as the TMZ treatment is concerned, it was added in the concentrations depending on the MGMT expression and methylation status, i.e., TMZ 30 µM was added to the A-172 cell line, and TMZ 100 µM was added to both the T98G and U-138 MG cell lines. In the case of the 2D culture, the cells were treated with the compounds 24 h after seeding, whereas, in regard to 3D culture, 5 days were needed to form spheroids. All subsequent analyses were performed 48 h after treatment.
The fluorescent-based analysis of apoptosis using Muse® Caspase-3/7 Kit was performed in order to analyze the percentage of live, early, and late apoptotic; total apoptotic; and dead cells in A-172, T98G, and U-138 MG GBM cells treated with lichen secondary metabolites. The principle of the method relies on the measurement of the activity of executioner caspases, i.e., caspase-3 and caspase-7, as well as analyzing the integrity of the cell membrane with the use of a dead cell marker 7-AAD. Cell seeding and treatment followed the same protocol as for cell cycle or ROS generation analysis, while the subsequent procedures were performed according to the manufacturer’s recommendations.

[2] = tested on: MCF-7 breast cancer cells; design: method as in PMID 32096436; conditions: MCF-7, ref [31]; read-out: IC50 concentration; cited from earlier work
[3] = tested on: Wnt/β-catenin pathway target genes in U-138 MG cells; test: qPCR of β-catenin and Wnt target genes, U-138 MG; format: cell-based, human; conditions: 48 h; for expression of the Wnt target genes: co-treatment with TMZ 100 µM
Protocol: as §1
The Universal RNA Purification Kit (EURx, Gdańsk, Poland) was used for total RNA isolation from the A-172, T98G, and U-138 MG cells, and the Revert-Aid First Strand cDNA Synthesis kit (Fermentas, Burlington, ON, Canada) was chosen for cDNA synthesis. Quantitative real-time PCR (qPCR) was performed using Hot FIREPol EvaGreen qPCR Mix Plus (Solis Biodyne, Tartu, Estonia) and LightCycler 96 (Roche Diagnostics GmbH, Mannheim, Germany). Primer sequences were previously published and their synthesis was performed at the Institute of Biochemistry and Biophysics, Warsaw, Poland. The protocol started with 15 min enzyme activation at 95 °C, followed by 40 cycles of 95 °C for 15 s; appropriate annealing temperature for 20 s; 72 °C for 40 s and the final elongation at 72 °C for 5 min. Melting curve analysis was used to confirm the generation of a single amplification product. TATA box-binding protein (TBP), a component of the DNA-binding protein complex TFIID, served as the endogenous RNA control. The results were expressed as N-fold differences in the gene expression relative to the TBP gene. The ΔΔCt method was used for fold-change calculation. All samples were analyzed in triplicate, and the reaction was repeated at least twice.

[4] = tested on: HCT-116 cells; design: method as in PMID 35190352; conditions: atranorin at 30 µg/mL, ref [30]; cited from earlier work
[5] = tested on: HCT-116 cells; design: method as in PMID 35190352; conditions: HCT-116, ref [30]; cited from earlier work
[6] = tested on: MDA-MB-231 breast cancer cells; design: method as in PMID 32096436; conditions: MDA-MB-231, ref [31]; read-out: IC50 concentration; cited from earlier work
[7] = tested on: T98G cells; test: MTT test, T98G; format: cell-based; conditions: Homo sapiens, 48 h, three independent experiments, read-out: IC50 [uM] ± SEM T98G
Protocol: Three human GBM cell lines were used in this study, i.e., A-172 (ATCC-CRL-1620), T98G (92090213), and U-138 MG (ATCC-HTB-16). The A-172 and U-138 MG cell lines were purchased from the American Type Culture Collection (ATCC), whereas the T98G cell line was obtained from the European Collection of Authenticated Cell Cultures (ECACC). It has been confirmed by us that O^6-methylguanine-DNA methyltransferase (MGMT), the key factor determining the response to alkylating agents, such as TMZ, is expressed in T98G and U-138 MG cells, whereas in A-172 the expression of MGMT is silenced by promoter methylation. Therefore, the cell lines differ in terms of TMZ sensitivity; A-172 is regarded as TMZ sensitive, whereas T98G and U-138 MG are TMZ resistant.
The cells were grown as monolayers (2D cell culture) in the recommended media: A-172 were grown in the ATCC-formulated DMEM (Merck, Darmstadt, Germany), whereas T98G and U-138 MG cell lines were grown in the ATCC-formulated EMEM (Merck, Darmstadt, Germany). These media were supplemented with FBS (Biowest, Nuaillé, France) to a final concentration of 10%, as well as antibiotics (penicillin and streptomycin) (Merck, Darmstadt, Germany) to the final concentrations of 1%. For the experiments, the amount of FBS was reduced to 5%. The medium for the T98G cell line was supplemented with 2 mM glutamine, 1% nonessential amino acids, and 1% sodium pyruvate (all purchased from Merck, Darmstadt, Germany).
In order to analyze the cytotoxicity of the analyzed lichen secondary metabolites, as well as to establish the appropriate concentrations for further analysis (allowing the survival of >70% of cells), we performed the MTT test. The procedure of the test was described previously. Briefly, the cells (10,000 cells per well) were seeded on the 96-well plates and left for 24 h. Afterwards, the analyzed compounds in the concentration range of 1 µM up to 100 µM were added to the cells and left for 48 h incubation. DMSO treated cells served as control. After the above-mentioned time, the cells were washed twice with warm PBS and incubated for 3 h in the presence of a fresh medium containing MTT salt (0.5 mg/mL). Then the formazan crystals were dissolved in acidic isopropanol. The absorbance was measured at 570 and 690 nm on a Tecan Infinite M200 microplate reader (Grödig, Austria). The experiments were repeated at least three times.

[8] = tested on: HCT-116 cells; design: method as in PMID 35190352; conditions: 30 µg/mL, ref [30]; cited from earlier work
[9] = tested on: T98G cells; conditions: taken from the literature, ref [5]; read-out: IC50 [uM] ± SEM T98G; cited from earlier work
[10] = mRNA vs DMSO control, single agent

SMILES	effect on apoptosis [1]	Axin2 expression [3, 10]	apoptosis induction [4]	cell cycle distribution [5]	IC50 [7] [µM]	viability of HCT-116 cells [8]	expression of the Wnt target genes [3]	other results
COC(=O)c1c(C)cc(OC(=O)c2c(C)cc(O)c(C=O)c2O)c(C)c1O [Atranorin]	anti-apoptotic effect	downregulated	significantly induced apoptosis	no significant effect	98.6 ± 7.8	significantly reduced	–	IC50 [2]: 7.55 ± 1.2 µM; IC50 [6]: 5.36 ± 0.85 µM
CCCCCCCCCCCCCCC(C(=O)O)C(O)(CC(=O)OC)C(=O)O (stereo not shown) [Caperatic acid]	anti-apoptotic effect	downregulated	–	–	> 100	–	huge downregulatory effect	NEDD9 expression ([3]; mRNA vs DMSO control, single agent, TMZ 100 µM): downregulated
Cc1cc(OC(=O)c2c(C)cc(O)cc2O)cc(O)c1C(=O)O [Lecanoric acid]	–	–	did not induce apoptosis	cell cycle arrest in the G2 phase	> 100	significantly reduced	–	number of late apoptotic cells vs control ([1]; 100 µM): increased; percentage of early apoptotic cells vs control ([1]; 100 µM): decreased
Cc1cc(O)c(C=O)c2c1C(=O)Oc1c(CO)c(O)c3c(c1O2)C(O)OC3=O (stereo not shown) [Salazinic acid]	–	–	–	–	–	–	huge downregulatory effect	BIRC5 expression [3, 10]: diminished; CCND1 expression [3, 10]: downregulated CCND1 expression by around half; IC50 [9]: > 100 µM
COc1cc(C)c(C(=O)Oc2cc(C)c(C(=O)O)c(O)c2C)c(O)c1C(=O)O [Squamatic acid]	–	downregulated	–	–	> 100	–	–	–
